Measured values published in patent US9371365B2, “Modified compstatin with peptide backbone and C-terminal modifications” (The Trustees of the University of Pennsylvania, priority 2009, dated 2016).
Where two headings read alike, the source gives them in different places.

Tests used:
C3 = biological target: T1, C3 (Homo sapiens, UniProt P01024); assay: ITC analysis of binding to C3
T1 construct: C3 was purified from fresh human plasma; from tissue; host or cells: fresh human plasma (blood bank of the Hospital of the University of Pennsylvania)
T1 sequence (P01024 23-667 limits assumed): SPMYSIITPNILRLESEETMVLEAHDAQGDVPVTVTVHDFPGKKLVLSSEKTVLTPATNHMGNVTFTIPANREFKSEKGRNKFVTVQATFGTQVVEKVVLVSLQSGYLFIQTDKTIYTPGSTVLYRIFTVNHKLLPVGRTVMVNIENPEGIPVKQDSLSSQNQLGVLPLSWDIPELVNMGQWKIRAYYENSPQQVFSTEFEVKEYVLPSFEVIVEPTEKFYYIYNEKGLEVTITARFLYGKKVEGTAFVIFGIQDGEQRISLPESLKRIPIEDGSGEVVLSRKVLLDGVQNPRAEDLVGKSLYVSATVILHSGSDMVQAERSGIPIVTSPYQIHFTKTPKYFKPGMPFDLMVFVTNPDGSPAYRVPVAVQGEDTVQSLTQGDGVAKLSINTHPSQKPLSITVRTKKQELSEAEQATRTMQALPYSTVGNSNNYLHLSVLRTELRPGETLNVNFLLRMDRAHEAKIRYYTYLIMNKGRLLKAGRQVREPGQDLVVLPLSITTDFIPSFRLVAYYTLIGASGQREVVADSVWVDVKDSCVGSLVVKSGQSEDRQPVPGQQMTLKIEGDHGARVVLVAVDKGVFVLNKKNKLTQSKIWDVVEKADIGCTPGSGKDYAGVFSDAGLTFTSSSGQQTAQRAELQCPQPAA
T1 sequence (P01024 672-1663 limits assumed): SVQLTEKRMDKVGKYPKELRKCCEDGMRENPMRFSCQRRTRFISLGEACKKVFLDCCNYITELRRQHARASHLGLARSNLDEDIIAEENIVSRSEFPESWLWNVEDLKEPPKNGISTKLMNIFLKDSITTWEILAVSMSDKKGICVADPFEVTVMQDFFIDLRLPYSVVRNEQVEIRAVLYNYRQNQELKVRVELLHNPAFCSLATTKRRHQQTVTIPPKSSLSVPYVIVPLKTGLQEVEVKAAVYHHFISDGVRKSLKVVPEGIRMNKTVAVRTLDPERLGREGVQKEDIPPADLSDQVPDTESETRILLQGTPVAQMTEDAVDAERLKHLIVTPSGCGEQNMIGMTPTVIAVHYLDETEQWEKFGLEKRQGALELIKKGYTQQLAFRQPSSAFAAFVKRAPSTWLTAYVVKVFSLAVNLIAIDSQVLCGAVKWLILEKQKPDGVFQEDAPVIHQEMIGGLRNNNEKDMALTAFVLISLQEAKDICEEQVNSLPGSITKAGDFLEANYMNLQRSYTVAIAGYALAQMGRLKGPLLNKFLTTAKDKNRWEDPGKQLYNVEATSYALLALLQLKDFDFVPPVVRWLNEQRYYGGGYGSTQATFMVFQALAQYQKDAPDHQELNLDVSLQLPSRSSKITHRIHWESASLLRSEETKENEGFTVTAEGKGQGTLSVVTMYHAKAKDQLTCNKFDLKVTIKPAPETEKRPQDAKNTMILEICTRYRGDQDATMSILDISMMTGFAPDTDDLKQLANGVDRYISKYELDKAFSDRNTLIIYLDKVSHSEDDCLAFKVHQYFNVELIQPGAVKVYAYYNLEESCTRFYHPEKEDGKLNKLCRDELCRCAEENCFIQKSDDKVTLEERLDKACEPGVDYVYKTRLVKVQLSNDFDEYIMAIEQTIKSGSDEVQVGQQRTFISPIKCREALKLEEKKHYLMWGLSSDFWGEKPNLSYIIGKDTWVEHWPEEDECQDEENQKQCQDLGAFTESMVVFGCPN
Description: C3 was purified from fresh human plasma obtained from the blood bank of the Hospital of the University of Pennsylvania. In brief, the plasma was fractionated with 15% (w/v) PEG 3350, and the pellet was resuspended in 20 mM phosphate buffer, pH 7.8, and then subjected to anion-exchange chromatography on a DEAE-HR 40 column (50×5 cm; Millipore Inc., Billerica, Mass.) with the same buffer. Proteins were eluted with 6 L of a linear gradient (15-70%) of 20 mM phosphate buffer, pH 7.8, containing 500 mM NaCl. C3 was further purified on a size-exclusion Superdex 200 26/60 column (Amersham Biosciences) and a Mono S column (Amersham Biosciences) to separate C3 from C3(H2O).
All titrations were performed in PBS (10 mM phosphate buffer with 150 mM NaCl, pH 7.4) at 25° C. using multiple peptide injections of 2-7 μL each. The raw isotherms were corrected for the heats of dilution by subtracting the isotherms representing peptide injections into the buffer. The resulting isotherms were fitted to a single site of sites models using Origin 7.0 software, and the model that produced the lowest χ^2 value was deemed to be appropriate for the respective data set. The Gibbs free energy was calculated as ΔG=ΔH−TΔS. Each experiment was repeated at least twice.

[1] = tested on: classical pathway of complement; assay: Inhibition of classical pathway complement activation, ELISA in human serum; type: biochemical
Description: The ability of the compstatin analogs to inhibit the activation of the classical pathway of complement was assessed by ELISA (Mallik et al., 2005, J Med Chem 48:274-86). In brief, complement was activated in human serum using an antigen-antibody complex in the presence or absence of compstatin analogs, and the deposition of C3 fragments on the plate surface was detected using an HRP-conjugated polyclonal anti-C3 antibody. […] The percent inhibition was plotted against the peptide concentration, and the resulting data set was fitted to the logistic dose-response function using Origin 7.0 software. IC50 values were obtained from the fitted parameters that produced the lowest χ^2 value. Each analog was assayed at least three to seven times.
The ability of the compstatin analogs to inhibit the activation of the classical pathway of complement was assessed by ELISA as described in Example 1. Each conjugate was assayed at least three times.

C3b = biological target: T2, C3b (Homo sapiens, UniProt P01024); assay: SPR analysis of binding kinetics to immobilized C3b
T2 construct: biotin (chemical biotinylation of C3b)
T2 sequence (P01024 23-667 limits assumed): as the sequence (P01024 23-667 limits assumed) above
T2 sequence (P01024 749-1663 limits assumed): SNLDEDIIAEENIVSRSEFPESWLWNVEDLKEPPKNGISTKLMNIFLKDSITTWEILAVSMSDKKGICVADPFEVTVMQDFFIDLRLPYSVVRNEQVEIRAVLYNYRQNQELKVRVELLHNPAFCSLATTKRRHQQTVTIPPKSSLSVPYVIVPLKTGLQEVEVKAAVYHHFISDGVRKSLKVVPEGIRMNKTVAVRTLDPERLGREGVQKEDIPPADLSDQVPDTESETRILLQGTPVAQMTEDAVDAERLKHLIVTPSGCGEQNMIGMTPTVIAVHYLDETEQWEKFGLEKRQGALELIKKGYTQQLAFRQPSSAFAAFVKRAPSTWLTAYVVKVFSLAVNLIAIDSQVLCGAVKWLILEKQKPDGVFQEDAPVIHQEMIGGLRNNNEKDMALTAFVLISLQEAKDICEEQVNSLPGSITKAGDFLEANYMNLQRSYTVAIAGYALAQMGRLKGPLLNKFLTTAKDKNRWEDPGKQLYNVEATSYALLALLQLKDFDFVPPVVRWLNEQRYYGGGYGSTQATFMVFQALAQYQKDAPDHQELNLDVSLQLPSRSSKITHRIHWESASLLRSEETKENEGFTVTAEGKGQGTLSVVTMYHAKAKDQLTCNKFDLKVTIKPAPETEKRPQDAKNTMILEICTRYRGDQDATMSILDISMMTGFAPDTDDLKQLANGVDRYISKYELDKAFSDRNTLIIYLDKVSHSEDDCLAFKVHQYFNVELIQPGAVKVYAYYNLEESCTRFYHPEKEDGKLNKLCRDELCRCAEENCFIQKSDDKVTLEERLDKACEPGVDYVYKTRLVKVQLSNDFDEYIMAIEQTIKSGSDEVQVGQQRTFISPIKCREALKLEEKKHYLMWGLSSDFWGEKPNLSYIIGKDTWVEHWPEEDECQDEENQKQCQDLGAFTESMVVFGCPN
Description: (§1) The kinetics of the interaction between C3b and each compstatin analog was analyzed by SPR on a Biacore 3000 instrument (GE Healthcare Corp., Piscataway, N.J.) at 25° C. using PBS-T (10 mM sodium phosphate, 150 mM NaCl, 0.005% Tween-20, pH 7.4) as the running buffer, as described above. In brief, biotinylated C3b (30 μg/mL) was immobilized on a streptavidin-coated sensor chip, and a two-fold serial dilution series (1 μM-500 pM) of each analog was injected for 2 min at 30 μl/min, with a dissociation phase of 5-10 min. Peptide [Trp(Me)^4]-Ac-compstatin was included in each experimental series as an internal control and reference. Data analysis was performed using Scrubber (BioLogic Software, Campbell, Australia). The signals from an untreated flow cell and an ensemble of buffer blank injections were subtracted to correct for buffer effects and injection artifacts. Processed biosensor data were globally fitted to a 1:1 Langmuir binding model, and the equilibrium dissociation constant (KD) was calculated from the equation KD=kd/ka. Peptide solutions were injected in duplicate in every experiment, and each screening assay was performed at least twice.
as §1, with “in Example 1.” for “above.”, “μg/ml)” for “μg/mL)”, “Peptide [Trp(Me)^4]-Ac-compstatin was included in each experimental series as an internal control and reference.” left out

**Q.** For `CC[C@H](C)[C@H](NC(=O)[C@@H]1CSSC[C@H](NC(=O)[C@@H](NC(C)=O)[C@@H](C)CC)C(=O)N[C@@H](C(C)C)C(=O)N[C@@H](Cc2cn(C)c3ccccc23)C(=O)N[C@@H](CCC(N)=O)C(=O)N[C@@H](CC(=O)O)C(=O)N[C@@H](Cc2c[nH]c3ccccc23)C(=O)N(C)CC(=O)N[C@@H](C)C(=O)N[C@@H](Cc2c[nH]cn2)C(=O)N[C@@H](CCCNC(=N)N)C(=O)N1)C(N)=O` [Peptide 17, Ac−Ic[CV(^1−MeW)QDW(^N−MeG)AHRC]I-NH2], which ΔH (C3; ITC) is on record?
**A.** The ΔH was -14.1 kcal/mol.

**Q.** What about the “ΔH (text)” value (C3; ITC) of the same compound?
**A.** Its value is -14.1 kcal/mol.

**Q.** And the “−TΔS” value (C3; ITC)?
**A.** Its value is 2.9 kcal/mol.

**Q.** And the “−TΔS (text)” value (C3; ITC)?
**A.** The value was 2.9 kcal/mol.

**Q.** And the ΔG (C3; ITC, ΔG=ΔH−TΔS)?
**A.** Its ΔG is -11.2 kcal/mol.

**Q.** And the “rKD ITC” value (C3; relative to peptide 14)?
**A.** Its value is 2.4.

**Q.** What about the ΔΔG (C3; relative to peptide 14) of the same compound?
**A.** The ΔΔG was -0.5 kcal/mol.

**Q.** What about the ΔΔH (C3; relative to peptide 14) of the same compound?
**A.** Its ΔΔH is 3.5 kcal/mol.

**Q.** And the “−TΔΔS” value (C3; relative to peptide 14)?
**A.** The value was -4.1 kcal/mol.

**Q.** And the IC50 ([1]; Table 1-2, read-out: IC50)?
**A.** Its IC50 is 92 nM.

**Q.** What about the IC50 ([1]; classical pathway, human serum, Table 2-1, read-out: IC50 (nM, CP)) of the same compound?
**A.** The IC50 was 92 nM.

**Q.** And the IC50 ([1]; exemplary analogs table, read-out: IC50)?
**A.** Its IC50 is 92 nM.

**Q.** What about the rP ([1]; relative potency compared to peptide 14) of the same compound?
**A.** Its rP is 2.2.

**Q.** And the “IC50 (fold change)” value ([1]; relative to peptide 17)?
**A.** The value was 1.

**Q.** What about the “fold stronger affinity than peptide 14” value (C3b; SPR) of the same compound?
**A.** Its value is 2.7 fold.

**Q.** And the kd (C3b; SPR, 25° C., PBS-T)?
**A.** Its kd is 6.6 10^−3/s.

**Q.** And the Koff (C3b; SPR, Table 2-1)?
**A.** The Koff was 6.6 10^−3, s^−1.

**Q.** And the Kon (C3b; SPR, Table 2-1)?
**A.** The Kon was 1.0 10^6, M^−1 · s^−1.

**Q.** And the kon (C3b; pH 7.4, read-out: ka)?
**A.** The kon was 1.5e+06 M⁻¹ s⁻¹.

**Q.** And the “rKD SPR” value (C3b; relative to peptide 14)?
**A.** Its value is 2.7.

**Q.** And the rka (C3b; relative to peptide 14)?
**A.** The rka was 1.5.

**Q.** What about the rkd (C3b; relative to peptide 14) of the same compound?
**A.** The rkd was 1.7.
